Source: PubChem BioAssay AID1259407 (Chemical Carcinogenesis Research Information System (CCRIS), 2018)
The source made the active and inactive calls. How the calls were made is not given here.

Tested on: CCRIS mutagenicity, Ames/micronucleus/aberration tests
Assay: CCRIS mutagenicity studies
Details: Test System: AMES SALMONELLA TYPHIMURIUM
[1] = Strain/Indicator: TA98, Metabolic Activation: NONE, Method: PREINCUBATION
[2] = Strain/Indicator: TA100, Metabolic Activation: NONE, Method: PREINCUBATION
[3] = Strain/Indicator: TA98, Metabolic Activation: NONE, Method: STANDARD PLATE

Measured: mutagenic call

O=C(Oc1ccccc1)c1ccccc1O
inactive: Strain/Indicator: TA98, Metabolic Activation: HAMSTER, LIVER, S-9, AROCLOR 1254 (10%), Method: PREINCUBATION inactive; negative | [1] inactive; negative | Strain/Indicator: TA98, Metabolic Activation: RAT, LIVER, S-9, AROCLOR 1254 (10%), Method: PREINCUBATION inactive; negative | Strain/Indicator: TA100, Metabolic Activation: HAMSTER, LIVER, S-9, AROCLOR 1254 (10%), Method: PREINCUBATION inactive; negative | [2] inactive; negative | Strain/Indicator: TA100, Metabolic Activation: RAT, LIVER, S-9, AROCLOR 1254 (10%), Method: PREINCUBATION inactive; negative | Strain/Indicator: TA1535, Metabolic Activation: HAMSTER, LIVER, S-9, AROCLOR 1254 (10%), Method: PREINCUBATION inactive; negative | Strain/Indicator: TA1535, Metabolic Activation: NONE, Method: PREINCUBATION inactive; negative | Strain/Indicator: TA1535, Metabolic Activation: RAT, LIVER, S-9, AROCLOR 1254 (10%), Method: PREINCUBATION inactive; negative | Strain/Indicator: TA1537, Metabolic Activation: HAMSTER, LIVER, S-9, AROCLOR 1254 (10%), Method: PREINCUBATION inactive; negative | Strain/Indicator: TA1537, Metabolic Activation: NONE, Method: PREINCUBATION inactive; negative | Strain/Indicator: TA1537, Metabolic Activation: RAT, LIVER, S-9, AROCLOR 1254 (10%), Method: PREINCUBATION inactive; negative

[Cl][Pd-2]([Cl])([Cl])[Cl]
inactive: Strain/Indicator: TA97A, Metabolic Activation: NONE, Method: STANDARD PLATE inactive; negative | Strain/Indicator: TA97A, Metabolic Activation: RAT, LIVER, S-9, PHENOBARBITAL AND 5,6-BENZOFLAVONE, Method: STANDARD PLATE inactive; negative | Strain/Indicator: TA97A, Metabolic Activation: RAT, LIVER, S-9, PHENOBARBITAL AND BETA-NAPHTHOFLAVONE, Method: STANDARD PLATE inactive; negative | [1] inactive; negative | [3] inactive; negative | Strain/Indicator: TA98, Metabolic Activation: RAT, LIVER, S-9, AROCLOR 1254, Method: PREINCUBATION inactive; negative | Strain/Indicator: TA98, Metabolic Activation: RAT, LIVER, S-9, PHENOBARBITAL AND 5,6-BENZOFLAVONE, Method: STANDARD PLATE inactive; negative | Strain/Indicator: TA98, Metabolic Activation: RAT, LIVER, S-9, PHENOBARBITAL AND BETA-NAPHTHOFLAVONE, Method: STANDARD PLATE inactive; negative | [2] inactive; negative | Strain/Indicator: TA100, Metabolic Activation: NONE, Method: STANDARD PLATE inactive; negative | Strain/Indicator: TA100, Metabolic Activation: RAT, LIVER, S-9, AROCLOR 1254, Method: PREINCUBATION inactive; negative | Strain/Indicator: TA100, Metabolic Activation: RAT, LIVER, S-9, PHENOBARBITAL AND 5,6-BENZOFLAVONE, Method: STANDARD PLATE inactive; negative | Strain/Indicator: TA100, Metabolic Activation: RAT, LIVER, S-9, PHENOBARBITAL AND BETA-NAPHTHOFLAVONE, Method: STANDARD PLATE inactive; negative | Strain/Indicator: TA102, Metabolic Activation: NONE, Method: STANDARD PLATE inactive; negative | Strain/Indicator: TA102, Metabolic Activation: RAT, LIVER, S-9, PHENOBARBITAL AND 5,6-BENZOFLAVONE, Method: STANDARD PLATE inactive; negative | Strain/Indicator: TA102, Metabolic Activation: RAT, LIVER, S-9, PHENOBARBITAL AND BETA-NAPHTHOFLAVONE, Method: STANDARD PLATE inactive; negative

Clc1ccc(-c2nc3ccccc3o2)cc1
inactive: [3] inactive; negative | Strain/Indicator: TA98, Metabolic Activation: S-9, Method: STANDARD PLATE inactive; negative

Cc1cccc(C)c1[N+](=O)[O-]
inactive: [1] inactive; negative | Strain/Indicator: TA98, Metabolic Activation: RAT, LIVER, S-9, KANECHLOR 500, Method: PREINCUBATION inactive; negative | [2] inactive; negative | Strain/Indicator: TA100, Metabolic Activation: RAT, LIVER, S-9, KANECHLOR 500, Method: PREINCUBATION inactive; negative
